Read-outs that look alike come from different tables or passages of the source. Where no end group is shown, it is not given here.
Tests used:
[1] = tested on: previously treated squamous-cell lung cancer; settings: cited from earlier work; for Median survival time (MST): CheckMate-017, primary outcome; for Disease progression rate / Response rate: CheckMate-017
[2] = tested on: previously treated non-squamous non-small-cell lung cancer; settings: cited from earlier work; for Median survival time (MST): CheckMate-057, primary outcome; for Disease progression rate / Response rate: CheckMate-057
[3] = tested on: previously treated non-small-cell lung cancer; settings: cited from earlier work
[4] = tested on: previously treated non-small-cell lung cancer; settings: cited from earlier work; for MST: POPLAR
[5] = Repeated administration toxicity trial for 10 weeks into the dorsal skin; settings: both sexes, Sprague-Dawley (Crl:CD(SD)), rat, in vivo; both males and females, 10 weeks repeated administration; read-out: No-observed-adverse-effect level
Protocol: A toxicity trial was performed in which a mixture of SLP1 and SLP2 was repeatedly administered for 10 weeks (intermittently administered five times every 14 days) with an adjuvant into the dorsal skin of Sprague-Dawley rats (Crl:CD(SD), 6-week-old at the start of administration, a group of 10 males and 10 females).
The following two doses were adopted as the doses of the test substances: 0.2 mg/kg (SLP1: 0.2 mg/kg+SLP2: 0.2 mg/kg) and 2 mg/kg (SLP1: 2 mg/kg+SLP2: 2 mg/kg). SLP1 and SLP2 dissolved in water for injection and Picibanil were mixed with an equal amount of an oil adjuvant MONTANIDE ISA 51 VG (ISA51) to provide an emulsion, which was administered into the dorsal skin in an administration volume of 1 mL/kg. Further, a vehicle control group to be administered an emulsion of water for injection and Picibanil with ISA51 and a physiological saline control group to be administered physiological saline were formed.
During the administration period, general condition observation, body weight measurement, and food intake measurement were performed, and urine examination and ophthalmologic examination were performed in week 10 of the administration. At the end of the administration period, hematological examination, blood chemical examination, an autopsy, organ weight measurement, and histopathological examination were performed.

[6] = KEYNOTE-010, tumor PD-L1 expression of 1% or more
[7] = KEYNOTE-010, tumor PD-L1 expression of 50% or more

Row | Compound | Median survival time (MST) [1] [months] | Disease progression rate [1] [%] | Response rate [1] [%] | Median survival time (MST) [2] [months] | Disease progression rate [2] [%] | Response rate [2] [%] | MST [4] [months] | NOAEL at 1680 h [5] [mg/kg] | other results
1 | CC(=O)O[C@@]12CO[C@@H]1C[C@H](O)[C@@]1(C)C(=O)[C@H](O)C3=C(C)[C@@H](OC(=O)[C@H](O)[C@@H](NC(=O)OC(C)(C)C)c4ccccc4)C[C@@](O)([C@@H](OC(=O)c4ccccc4)[C@H]21)C3(C)C [docetaxel] | 6.0 | 30 | 31 | 9.4 | 29 | 12 | 9.7 | – | MST [3, 6]: 8.5 months; Response rate [3, 6]: 9.3%; Response rate [3, 7]: 7.9%; Response rate ([4]; group expressing no PD-L1 in the cancer immune microenvironment): about 15%
2 | ISQTPGINLDLGSGVKVKIIPKEEH [SLP2] | – | – | – | – | – | – | – | > 2 | –
3 | NQQLKVGILHLGSRQKKIRIQLRSQ [SLP1] | – | – | – | – | – | – | – | > 2 | –
4 | atezolizumab | – | – | – | – | – | – | 12.6 | – | Response rate ([4]; group highly expressing PD-L1 in the cancer immune microenvironment): 38%
5 | nivolumab | 9.2 | 33 | 36 | 12.2 | 44 | 19 | – | – | –
6 | pembrolizumab | – | – | – | – | – | – | – | – | Progression-free survival (PFS) as compared to docetaxel group [3, 6]: No significant difference; PFS as compared to docetaxel group [3, 7]: significantly improved

— patent publication US11709165B2, “Examination method for prediction of effect of treatment of cancer based on detection of cancer/testis antibodies” (KAWASAKI GAKUEN EDUCATIONAL FOUNDATION, priority 2017, dated 2023)
